Laboratory results as given in patent US12091411B2, “IRAK degraders and uses thereof” (Kymera Therapeutics, Inc., priority 2022, dated 2024).
Where two headings read alike, the source gives them in different places.

Target: T1, IRAK4 (Homo sapiens, UniProt Q9NWZ3)
T1 construct: Degradation of IRAK4 in OCI-LY10 was quantitatively measured using Meso Scale Discovery technology; endogenous in cells; host or cells: OCI-LY10
T1 sequence (Q9NWZ3 1-460): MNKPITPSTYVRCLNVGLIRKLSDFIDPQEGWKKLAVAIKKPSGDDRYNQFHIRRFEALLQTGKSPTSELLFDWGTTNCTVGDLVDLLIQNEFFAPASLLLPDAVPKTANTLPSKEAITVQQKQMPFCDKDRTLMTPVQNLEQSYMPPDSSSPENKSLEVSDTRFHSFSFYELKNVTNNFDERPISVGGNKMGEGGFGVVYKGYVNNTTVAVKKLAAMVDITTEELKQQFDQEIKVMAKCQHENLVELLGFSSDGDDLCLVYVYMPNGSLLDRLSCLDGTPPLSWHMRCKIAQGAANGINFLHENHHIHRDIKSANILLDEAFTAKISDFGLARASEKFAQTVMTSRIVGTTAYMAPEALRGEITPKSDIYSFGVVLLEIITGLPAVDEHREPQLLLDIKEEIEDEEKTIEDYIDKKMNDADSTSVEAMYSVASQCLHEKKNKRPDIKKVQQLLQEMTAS
Experiment: IRAK4 MSD Degradation in OCI-LY10
Assay type: cell-based
Conditions: OCI-LY10 cells, MSD
In short: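 OCI-LY10 cells exposed to 8-point 1:3 compound series (top 1 to 10 μM) for 4 to 24 h at 37 °C, 5% CO2. Lysate IRAK4 quantified by MSD sandwich immunoassay. DC50 from three-parameter logistic fit, binned A (<0.01 μM) to D (>0.2 μM or not tested).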

[1] = 4 hrs incubation, read-out: IRAK4 degradation in OCI-LY10 at 4 hrs: DC50
[2] = 24 hrs incubation, read-out: IRAK4 degradation in OCI-LY10 at 24 hrs: DC50

Structure (SMILES) | DC50 [1] [nM] | DC50 [2] [nM]
Cn1c(=O)n(C2CCC(=O)NC2=O)c2cccc(N3CC(CO[C@@H]4CCN(C[C@H]5CC[C@H](n6cc(NC(=O)c7cnn8ccc(N9C[C@H]%10CC9CO%10)nc78)c(C(F)F)n6)CC5)C[C@H]4F)C3)c21 (stereo partly shown) [I-586] | > 200 | < 10
Cn1c(=O)n(C2CCC(=O)NC2=O)c2cccc(N3CC(CO[C@H]4CCN(C[C@H]5CC[C@H](n6cc(NC(=O)c7cnn8ccc(N9C[C@H]%10CC9CO%10)nc78)c(C(F)F)n6)CC5)C[C@@H]4F)C3)c21 (stereo partly shown) [I-587] | > 200 | < 10
Cn1c(=O)n(C2CCC(=O)NC2=O)c2cccc(N3CC(CO[C@H]4CCN(C[C@H]5CC[C@H](n6cc(NC(=O)c7cnn8ccc(N9C[C@H]%10CC9CO%10)nc78)c(C(F)F)n6)CC5)C[C@H]4F)C3)c21 (stereo partly shown) [I-588] | > 200 | < 10
Cn1c(=O)n(C2CCC(=O)NC2=O)c2cccc(C#CCO[C@@H]3CCN(C[C@H]4CC[C@H](n5cc(NC(=O)c6cnn7ccc(N8CCS(=O)(=O)CC8)nc67)c(C(F)F)n5)CC4)C[C@@H]3F)c21 (stereo partly shown) [I-589] | > 200 | > 200
Cn1c(=O)n(C2CCC(=O)NC2=O)c2cccc(C#CCO[C@@H]3CCN(C[C@H]4CC[C@H](n5cc(NC(=O)c6cnn7ccc(N8CCS(=O)(=O)CC8)nc67)c(C(F)F)n5)CC4)C[C@H]3F)c21 (stereo partly shown) [I-590] | > 200 | > 200
Cn1c(=O)n(C2CCC(=O)NC2=O)c2cccc(C#CCO[C@H]3CCN(C[C@H]4CC[C@H](n5cc(NC(=O)c6cnn7ccc(N8CCS(=O)(=O)CC8)nc67)c(C(F)F)n5)CC4)C[C@@H]3F)c21 (stereo partly shown) [I-591] | > 200 | > 200
Cn1c(=O)n(C2CCC(=O)NC2=O)c2cccc(C#CCO[C@H]3CCN(C[C@H]4CC[C@H](n5cc(NC(=O)c6cnn7ccc(N8CCS(=O)(=O)CC8)nc67)c(C(F)F)n5)CC4)C[C@H]3F)c21 (stereo partly shown) [I-592] | > 200 | > 200
Cn1c(=O)n(C2CCC(=O)NC2=O)c2cccc([C@H]3C[C@@H](COC4CN(C[C@H]5CC[C@H](n6cc(NC(=O)c7cnn8ccc(N9C[C@H]%10C[C@@H]9CO%10)nc78)c(C(F)F)n6)CC5)C4)C3)c21 (stereo partly shown) [I-597] | > 200 | < 10
Cn1c(=O)n(C2CCC(=O)NC2=O)c2cccc([C@H]3C[C@H](COC4CN(C[C@H]5CC[C@H](n6cc(NC(=O)c7cnn8ccc(N9C[C@H]%10C[C@@H]9CO%10)nc78)c(C(F)F)n6)CC5)C4)C3)c21 (stereo partly shown) [I-598] | > 200 | < 10
Cn1c(=O)n(C2CCC(=O)NC2=O)c2cccc(N3CC(COC4CN(C[C@H]5CC[C@H](n6cc(NC(=O)c7cnn8ccc(N9C[C@H]%10C[C@@H]9CO%10)nc78)c(C(F)F)n6)CC5)C4)C3)c21 (stereo partly shown) [I-599] | > 200 | < 10
Cn1c(=O)n(C2CCC(=O)NC2=O)c2cccc(C#CCOC3CN(C[C@H]4CC[C@H](n5cc(NC(=O)c6cnn7ccc(N8C[C@H]9C[C@@H]8CO9)nc67)c(C(F)F)n5)CC4)C3)c21 (stereo partly shown) [I-600] | > 200 | > 200
Cn1c(=O)n(C2CCC(=O)NC2=O)c2cccc(N3CC(F)(CN4CCN(C[C@H]5CC[C@H](n6cc(NC(=O)c7cnn8ccc(N9C[C@H]%10CC9CO%10)nc78)c(C(F)F)n6)CC5)CC4)C3)c21 (stereo partly shown) [I-604] | > 200 | > 200
Cn1c(=O)n(C2CCC(=O)NC2=O)c2cccc(N3CC(O)(CN4CCN(C[C@H]5CC[C@H](n6cc(NC(=O)c7cnn8ccc(N9C[C@H]%10CC9CO%10)nc78)c(C(F)F)n6)CC5)CC4)C3)c21 (stereo partly shown) [I-605] | > 200 | < 10
COC1(CN2CCN(C[C@H]3CC[C@H](n4cc(NC(=O)c5cnn6ccc(N7C[C@H]8CC7CO8)nc56)c(C(F)F)n4)CC3)CC2)CN(c2cccc3c2n(C)c(=O)n3C2CCC(=O)NC2=O)C1 (stereo partly shown) [I-606] | > 200 | < 10
Cn1c(=O)n(C2CCC(=O)NC2=O)c2cccc(OC3CN(C[C@H]4CC[C@H](n5cc6cc(NC(=O)c7cccc(C(F)(F)F)n7)ccc6n5)CC4)C3)c21 (stereo partly shown) [I-607] | > 200 | 10 to 100
Cn1c(=O)n(C2CCC(=O)NC2=O)c2cccc(OC3CN(C[C@H]4CC[C@H](n5cc6cc(NC(=O)c7cccc(C(F)(F)F)n7)ncc6n5)CC4)C3)c21 (stereo partly shown) [I-608] | > 200 | > 200
Cn1c(=O)n(C2CCC(=O)NC2=O)c2cccc(C3CN(C[C@H]4CC[C@H](n5cc6cc(NC(=O)c7cccc(C(F)(F)F)n7)ccc6n5)CC4)C3)c21 (stereo partly shown) [I-609] | > 200 | > 200
Cn1c(=O)n(C2CCC(=O)NC2=O)c2cccc(C3CN(C[C@H]4CC[C@H](n5cc6cc(NC(=O)c7cccc(C(F)(F)F)n7)ncc6n5)CC4)C3)c21 (stereo partly shown) [I-610] | > 200 | > 200
Cc1cccc(C(=O)Nc2ccc3nn([C@H]4CC[C@H](CN5CCC(c6cccc7c6n(C)c(=O)n7C6CCC(=O)NC6=O)C(F)(F)C5)CC4)cc3c2)n1 (stereo partly shown) [I-611] | > 200 | > 200
Cn1c(=O)n(C2CCC(=O)NC2=O)c2cccc(C3CCN(C[C@H]4CC[C@H](n5cc6cc(NC(=O)c7cccc(C#N)n7)ccc6n5)CC4)CC3(F)F)c21 (stereo partly shown) [I-612] | > 200 | > 200
Cn1c(=O)n(C2CCC(=O)NC2=O)c2cccc(C3CCN(C[C@H]4CC[C@H](n5cc6cc(NC(=O)c7cccc(C(F)F)n7)ccc6n5)CC4)CC3(F)F)c21 (stereo partly shown) [I-613] | > 200 | < 10
Cc1cccc(C(=O)Nc2cc3cn([C@H]4CC[C@H](CN5CCC(c6cccc7c6n(C)c(=O)n7C6CCC(=O)NC6=O)C(F)(F)C5)CC4)nc3cn2)n1 (stereo partly shown) [I-614] | > 200 | < 10

The next lines start with the values.

DC50 [1] [nM] | DC50 [2] [nM] | Structure (SMILES)
> 200 | < 10 | Cn1c(=O)n(C2CCC(=O)NC2=O)c2cccc([C@H]3C[C@](O)(CN4CCN(C[C@H]5CC[C@H](n6cc(NC(=O)c7cnn8ccc(N9C[C@H]%10CC9CO%10)nc78)c(C(F)F)n6)CC5)CC4)C3)c21 (stereo partly shown) [I-580]
> 200 | < 10 | Cn1c(=O)n(C2CCC(=O)NC2=O)c2cccc(N3CC(O[C@@H]4CCN(C[C@H]5CC[C@H](n6cc(NC(=O)c7cnn8ccc(N9C[C@H]%10C[C@@H]9CO%10)nc78)c(C(F)F)n6)CC5)C[C@@H]4F)C3)c21 (stereo partly shown) [I-581]
> 200 | > 200 | Cn1c(=O)n(C2CCC(=O)NC2=O)c2cccc(N3CC(O[C@@H]4CCN(C[C@H]5CC[C@H](n6cc(NC(=O)c7cnn8ccc(N9C[C@H]%10C[C@@H]9CO%10)nc78)c(C(F)F)n6)CC5)C[C@H]4F)C3)c21 (stereo partly shown) [I-582]
> 200 | > 200 | Cn1c(=O)n(C2CCC(=O)NC2=O)c2cccc(N3CC(O[C@H]4CCN(C[C@H]5CC[C@H](n6cc(NC(=O)c7cnn8ccc(N9C[C@H]%10C[C@@H]9CO%10)nc78)c(C(F)F)n6)CC5)C[C@@H]4F)C3)c21 (stereo partly shown) [I-583]
> 200 | > 200 | Cn1c(=O)n(C2CCC(=O)NC2=O)c2cccc(N3CC(O[C@H]4CCN(C[C@H]5CC[C@H](n6cc(NC(=O)c7cnn8ccc(N9C[C@H]%10C[C@@H]9CO%10)nc78)c(C(F)F)n6)CC5)C[C@H]4F)C3)c21 (stereo partly shown) [I-584]
> 200 | < 10 | Cn1c(=O)n(C2CCC(=O)NC2=O)c2cccc(N3CC(CO[C@@H]4CCN(C[C@H]5CC[C@H](n6cc(NC(=O)c7cnn8ccc(N9C[C@H]%10CC9CO%10)nc78)c(C(F)F)n6)CC5)C[C@@H]4F)C3)c21 (stereo partly shown) [I-585]
> 200 | > 200 | Cn1c(=O)n(C2CCC(=O)NC2=O)c2cccc([C@H]3C[C@H](O[C@@H]4CCN(C[C@H]5CC[C@H](n6cc(NC(=O)c7cnn8ccc(N9C[C@H]%10C[C@@H]9CO%10)nc78)c(C(F)F)n6)CC5)C[C@@H]4F)C3)c21 (stereo partly shown) [I-593]
> 200 | > 200 | Cn1c(=O)n(C2CCC(=O)NC2=O)c2cccc([C@H]3C[C@H](O[C@@H]4CCN(C[C@H]5CC[C@H](n6cc(NC(=O)c7cnn8ccc(N9C[C@H]%10C[C@@H]9CO%10)nc78)c(C(F)F)n6)CC5)C[C@H]4F)C3)c21 (stereo partly shown) [I-594]
> 200 | > 200 | Cn1c(=O)n(C2CCC(=O)NC2=O)c2cccc([C@H]3C[C@H](O[C@H]4CCN(C[C@H]5CC[C@H](n6cc(NC(=O)c7cnn8ccc(N9C[C@H]%10C[C@@H]9CO%10)nc78)c(C(F)F)n6)CC5)C[C@@H]4F)C3)c21 (stereo partly shown) [I-595]
> 200 | > 200 | Cn1c(=O)n(C2CCC(=O)NC2=O)c2cccc([C@H]3C[C@H](O[C@H]4CCN(C[C@H]5CC[C@H](n6cc(NC(=O)c7cnn8ccc(N9C[C@H]%10C[C@@H]9CO%10)nc78)c(C(F)F)n6)CC5)C[C@H]4F)C3)c21 (stereo partly shown) [I-596]
> 200 | > 200 | Cn1c(=O)n(C2CCC(=O)NC2=O)c2cccc(N3CC(OC4CCN(C[C@H]5CC[C@H](n6cc(NC(=O)c7cnn8ccc(N9C[C@H]%10C[C@@H]9CO%10)nc78)c(C(F)F)n6)CC5)CC4)C3)c21 (stereo partly shown) [I-601]
> 200 | > 200 | CN(C[C@H]1CC[C@H](n2cc(NC(=O)c3cnn4ccc(N5C[C@H]6C[C@@H]5CO6)nc34)c(C(F)F)n2)CC1)C1CN(c2cccc3c2n(C)c(=O)n3C2CCC(=O)NC2=O)C1 (stereo partly shown) [I-602]
> 200 | > 200 | C[C@H]1CN(c2ccn3ncc(C(=O)Nc4cn([C@H]5CC[C@H](CN(C)C6CN(c7cccc8c7n(C)c(=O)n8C7CCC(=O)NC7=O)C6)CC5)nc4C(F)F)c3n2)CCO1 (stereo partly shown) [I-603]
